The conditions of series [1]: cc_pd bond, 15-membered ring, 80.0 °C, 2.0 h.
The target in series [2] is EGFR WT (Homo sapiens (Human), UniProt P00533). Nature of the series: HotSpot radiometric kinase assay (Reaction Biology), EGFR WT. The series is classed as biochemical. Conditions: 10 μM ATP. The procedure, abridged:
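Compounds were preincubated ~20 min with kinase/substrate in pH 7.5 Hepes buffer (MgCl2, EGTA, Brij35, BSA, Na3VO4, DTT, 1% DMSO), then ATP plus 33P-ATP was added to 10 μM final. After 120 min at room temperature, reactions were spotted on P81 filters and washed; IC50 values came from curve fits.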

Series [3] deals with EGFR (D770_N771insNPG) (Homo sapiens (Human), UniProt P00533, INS770NPG). Nature of the series: HotSpot radiometric kinase assay, EGFR (D770_N771insNPG). Conditions: 10 μM ATP, read-out: EGFR (Δ770_N771insNPG) IC50. The series is classed as biochemical. The procedure, abridged: (§1)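 IC50 values derive from curve fits of 33P incorporation measured by P81 filter binding. ATP was 10 μM final; incubation lasted 120 min at room temperature after ~20 min compound preincubation.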

For series [4], the target named is EGFR Δ746-750 mutant (Homo sapiens (Human), UniProt P00533, DEL746-750). Nature of the series: HotSpot radiometric kinase assay, EGFR Δ746-750 mutant. In kind it is biochemical. The settings on record: 10 μM ATP. The procedure, abridged:
as §1

Series [5] has as its target EGFR Δ746-750/C797S mutant (Homo sapiens (Human), UniProt P00533, C797S/DEL746-750). Put plainly: HotSpot radiometric kinase assay, EGFR Δ746-750/C797S mutant. The series is classed as biochemical. The settings on record: 10 μM ATP. Summed up: as §1
Series [6] concerns the target EGFR L858R mutant (Homo sapiens (Human), UniProt P00533, L858R). Put plainly: HotSpot radiometric kinase assay, EGFR L858R mutant. The series is classed as biochemical. The settings on record: 10 μM ATP. Summed up: as §1
In series [7] the target is EGFR L858R/T790M mutant (Homo sapiens (Human), UniProt P00533, L858R/T790M). Nature of the series: HotSpot radiometric kinase assay, EGFR L858R/T790M mutant. In kind it is biochemical. The settings on record: 10 μM ATP. The procedure, abridged: as §1
For series [8], the target named is EGFR L858R/T790M/C797S mutant (Homo sapiens (Human), UniProt P00533, C797S/L858R/T790M). Nature of the series: HotSpot radiometric kinase assay, EGFR L858R/T790M/C797S mutant. In kind it is biochemical. The settings on record: 10 μM ATP. Summed up: as §1
Series [9] addresses ALK (Homo sapiens (Human), UniProt Q9UM73). Put plainly: HotSpot radiometric kinase assay, inhibition of ALK kinase activity. The series is classed as biochemical. Conditions: 10 μM ATP. As for the experimental part: Briefly, specific kinase/substrate pairs along with required cofactors were prepared in reaction buffer; 20 mM Hepes pH 7.5, 10 mM […], 1 mM EGTA, 0.02% Brij35, 0.02 mg/ml BSA, 0.1 mM Na3VO4, 2 mM DTT, 1% DMSO. Compounds were delivered into the reaction, followed […] later by addition of a mixture of ATP (Sigma, St. Louis MO) and ^33P ATP (Perkin Elmer, Waltham MA) to a final concentration of 10 μM. Reactions were carried out at room temperature for 120 min, followed by spotting of the reactions onto P81 ion exchange filter paper (Whatman Inc., Piscataway, NJ). Unbound phosphate was removed by extensive washing of filters in 0.75% phosphoric acid. […] IC50 values and curve fits were obtained using Prism (GraphPad Software).

Series [10] addresses CLK1 (Homo sapiens (Human), UniProt P49759). Put plainly: Inhibition of CLK1 kinase activity evaluated at Nanosyn (ADP-Glo). The series is classed as biochemical. The settings on record: ADP-Glo luminescence. The procedure, abridged: (§2)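 Enzyme + substrate in HEPES pH 7.5/MgCl2/DTT buffer; compound dispensed acoustically, 1% DMSO. ATP start, assay-specific incubation time. ADP-Glo reagent 40 min, detection reagent 10 min, luminescence. %inh vs DMSO (0%) and no-enzyme (100%) controls.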
For orientation: In ADP-Glo the light output rises with the ADP produced.

Series [11] has as its target CLK2 (Homo sapiens (Human), UniProt P49760). Put plainly: Inhibition of CLK2 kinase activity evaluated at Nanosyn (ADP-Glo). The series is classed as biochemical. Conditions: ADP-Glo luminescence. The procedure, abridged: as §2
Series [12] concerns the target CLK3 (Homo sapiens (Human), UniProt P49761). Put plainly: Inhibition of CLK3 kinase activity evaluated at Nanosyn (ADP-Glo). In kind it is biochemical. Conditions: ADP-Glo luminescence. The procedure, abridged: as §2
The target of series [13] is CLK4 (Homo sapiens (Human), UniProt Q9HAZ1). Put plainly: Inhibition of CLK4 kinase activity evaluated at Nanosyn (ADP-Glo). The series is classed as biochemical. Conditions: ADP-Glo luminescence. Summed up: as §2

Where two headings read alike, the source gives them in different places. Where only a bound is given, the exact number is not on record here.

Sequence of EGFR Δ746-750/C797S mutant (P00533 other isoform, or with tags, fused parts or gaps C797S/del 1-668/del 746-750 limits assumed): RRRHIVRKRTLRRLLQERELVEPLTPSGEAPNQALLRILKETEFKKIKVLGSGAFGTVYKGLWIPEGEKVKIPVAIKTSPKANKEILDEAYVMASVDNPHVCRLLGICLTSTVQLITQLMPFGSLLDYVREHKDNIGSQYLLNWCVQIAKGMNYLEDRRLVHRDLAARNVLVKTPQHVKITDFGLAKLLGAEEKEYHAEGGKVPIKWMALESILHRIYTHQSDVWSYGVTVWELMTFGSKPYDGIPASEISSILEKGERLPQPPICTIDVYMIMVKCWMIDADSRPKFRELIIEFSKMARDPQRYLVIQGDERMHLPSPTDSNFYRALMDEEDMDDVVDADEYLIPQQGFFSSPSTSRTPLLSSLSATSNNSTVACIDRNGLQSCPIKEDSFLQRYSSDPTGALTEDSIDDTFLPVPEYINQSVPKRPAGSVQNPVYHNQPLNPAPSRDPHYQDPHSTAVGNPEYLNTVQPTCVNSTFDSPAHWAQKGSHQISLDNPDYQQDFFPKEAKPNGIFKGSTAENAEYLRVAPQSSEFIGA
Sequence of ALK (Q9UM73 19-1620): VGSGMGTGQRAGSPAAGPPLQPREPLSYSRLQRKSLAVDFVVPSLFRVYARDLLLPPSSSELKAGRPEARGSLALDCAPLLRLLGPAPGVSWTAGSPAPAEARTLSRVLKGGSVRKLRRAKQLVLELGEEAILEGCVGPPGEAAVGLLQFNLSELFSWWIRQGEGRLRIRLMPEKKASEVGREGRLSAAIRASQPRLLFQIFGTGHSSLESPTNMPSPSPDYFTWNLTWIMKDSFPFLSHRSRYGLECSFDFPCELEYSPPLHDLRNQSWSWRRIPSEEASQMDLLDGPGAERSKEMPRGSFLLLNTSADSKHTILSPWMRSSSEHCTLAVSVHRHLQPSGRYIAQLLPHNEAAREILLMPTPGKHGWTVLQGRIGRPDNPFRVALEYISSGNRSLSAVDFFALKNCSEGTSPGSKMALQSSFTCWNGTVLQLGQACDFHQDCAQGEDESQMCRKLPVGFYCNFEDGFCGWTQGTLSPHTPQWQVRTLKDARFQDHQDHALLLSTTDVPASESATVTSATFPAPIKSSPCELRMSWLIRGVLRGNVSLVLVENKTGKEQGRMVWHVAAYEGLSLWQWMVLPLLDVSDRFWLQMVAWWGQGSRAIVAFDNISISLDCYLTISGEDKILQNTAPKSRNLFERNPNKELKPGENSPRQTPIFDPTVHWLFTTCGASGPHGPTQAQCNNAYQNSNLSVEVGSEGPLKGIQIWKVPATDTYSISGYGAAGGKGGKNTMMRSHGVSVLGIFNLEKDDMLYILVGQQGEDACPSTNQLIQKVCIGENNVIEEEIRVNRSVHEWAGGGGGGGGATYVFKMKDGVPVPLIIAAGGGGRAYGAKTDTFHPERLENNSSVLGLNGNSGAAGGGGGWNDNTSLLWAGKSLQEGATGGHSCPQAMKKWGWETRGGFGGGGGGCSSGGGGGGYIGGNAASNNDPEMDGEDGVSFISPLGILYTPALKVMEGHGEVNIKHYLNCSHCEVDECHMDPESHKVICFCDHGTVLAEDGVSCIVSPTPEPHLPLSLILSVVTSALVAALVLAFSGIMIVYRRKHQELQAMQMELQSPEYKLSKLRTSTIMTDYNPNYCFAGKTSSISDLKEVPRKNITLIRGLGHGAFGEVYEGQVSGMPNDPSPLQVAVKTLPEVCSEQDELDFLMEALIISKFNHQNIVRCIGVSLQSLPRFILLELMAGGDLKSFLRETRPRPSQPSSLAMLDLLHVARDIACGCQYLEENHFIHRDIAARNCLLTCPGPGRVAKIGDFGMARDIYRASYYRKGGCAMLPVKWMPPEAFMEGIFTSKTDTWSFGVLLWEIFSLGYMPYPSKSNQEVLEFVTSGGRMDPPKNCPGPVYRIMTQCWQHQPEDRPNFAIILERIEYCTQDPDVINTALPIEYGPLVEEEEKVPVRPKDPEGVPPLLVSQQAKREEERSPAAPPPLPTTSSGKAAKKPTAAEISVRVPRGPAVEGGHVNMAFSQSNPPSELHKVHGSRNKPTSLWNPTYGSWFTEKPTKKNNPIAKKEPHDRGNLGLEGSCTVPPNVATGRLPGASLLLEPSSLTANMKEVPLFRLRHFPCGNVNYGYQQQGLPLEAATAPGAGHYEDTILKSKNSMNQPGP
Sequence of EGFR (D770_N771insNPG) (P00533 other isoform, or with tags, fused parts or gaps del 1-668/ins NPG behind 770 limits assumed): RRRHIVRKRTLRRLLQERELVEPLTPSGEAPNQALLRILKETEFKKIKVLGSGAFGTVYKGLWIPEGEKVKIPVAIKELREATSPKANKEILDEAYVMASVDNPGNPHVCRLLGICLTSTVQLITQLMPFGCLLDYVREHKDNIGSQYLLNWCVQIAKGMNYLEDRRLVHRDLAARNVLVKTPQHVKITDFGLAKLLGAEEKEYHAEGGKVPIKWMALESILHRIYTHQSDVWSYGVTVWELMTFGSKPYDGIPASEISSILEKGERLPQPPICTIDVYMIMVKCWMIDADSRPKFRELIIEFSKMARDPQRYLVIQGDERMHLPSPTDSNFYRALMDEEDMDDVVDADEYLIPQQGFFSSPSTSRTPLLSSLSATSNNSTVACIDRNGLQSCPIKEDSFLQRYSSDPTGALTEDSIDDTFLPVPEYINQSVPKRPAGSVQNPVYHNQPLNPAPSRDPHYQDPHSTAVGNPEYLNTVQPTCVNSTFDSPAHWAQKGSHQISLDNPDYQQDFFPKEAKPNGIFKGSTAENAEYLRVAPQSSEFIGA
Sequence of CLK1 (P49759 whole entry): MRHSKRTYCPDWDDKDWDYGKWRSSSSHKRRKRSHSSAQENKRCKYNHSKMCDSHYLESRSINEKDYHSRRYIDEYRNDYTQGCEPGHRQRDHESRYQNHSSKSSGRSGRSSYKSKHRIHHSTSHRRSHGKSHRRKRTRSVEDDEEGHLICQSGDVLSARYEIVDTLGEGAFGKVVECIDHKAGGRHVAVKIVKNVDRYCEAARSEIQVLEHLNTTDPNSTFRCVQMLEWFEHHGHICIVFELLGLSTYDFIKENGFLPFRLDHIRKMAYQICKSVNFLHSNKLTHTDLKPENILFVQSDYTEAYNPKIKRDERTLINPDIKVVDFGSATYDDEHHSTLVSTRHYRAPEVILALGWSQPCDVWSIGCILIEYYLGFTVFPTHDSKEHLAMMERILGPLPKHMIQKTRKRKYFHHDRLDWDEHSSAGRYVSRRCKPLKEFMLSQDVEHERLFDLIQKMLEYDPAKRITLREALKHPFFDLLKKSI
Sequence of CLK2 (P49760 whole entry): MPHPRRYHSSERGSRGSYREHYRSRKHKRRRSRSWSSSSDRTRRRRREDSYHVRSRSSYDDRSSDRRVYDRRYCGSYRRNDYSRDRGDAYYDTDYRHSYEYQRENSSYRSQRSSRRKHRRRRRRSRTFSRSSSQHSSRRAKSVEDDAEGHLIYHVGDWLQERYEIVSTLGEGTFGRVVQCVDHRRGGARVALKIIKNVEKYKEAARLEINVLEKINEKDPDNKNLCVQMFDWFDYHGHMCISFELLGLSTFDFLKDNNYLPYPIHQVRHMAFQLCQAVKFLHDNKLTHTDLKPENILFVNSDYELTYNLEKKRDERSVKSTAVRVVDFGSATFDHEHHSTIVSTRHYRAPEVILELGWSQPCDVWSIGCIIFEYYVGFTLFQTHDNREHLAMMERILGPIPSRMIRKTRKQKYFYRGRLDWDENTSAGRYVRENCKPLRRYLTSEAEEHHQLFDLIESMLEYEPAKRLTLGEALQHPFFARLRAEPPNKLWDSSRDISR
Sequence of EGFR L858R mutant (P00533 25-1210 L858R): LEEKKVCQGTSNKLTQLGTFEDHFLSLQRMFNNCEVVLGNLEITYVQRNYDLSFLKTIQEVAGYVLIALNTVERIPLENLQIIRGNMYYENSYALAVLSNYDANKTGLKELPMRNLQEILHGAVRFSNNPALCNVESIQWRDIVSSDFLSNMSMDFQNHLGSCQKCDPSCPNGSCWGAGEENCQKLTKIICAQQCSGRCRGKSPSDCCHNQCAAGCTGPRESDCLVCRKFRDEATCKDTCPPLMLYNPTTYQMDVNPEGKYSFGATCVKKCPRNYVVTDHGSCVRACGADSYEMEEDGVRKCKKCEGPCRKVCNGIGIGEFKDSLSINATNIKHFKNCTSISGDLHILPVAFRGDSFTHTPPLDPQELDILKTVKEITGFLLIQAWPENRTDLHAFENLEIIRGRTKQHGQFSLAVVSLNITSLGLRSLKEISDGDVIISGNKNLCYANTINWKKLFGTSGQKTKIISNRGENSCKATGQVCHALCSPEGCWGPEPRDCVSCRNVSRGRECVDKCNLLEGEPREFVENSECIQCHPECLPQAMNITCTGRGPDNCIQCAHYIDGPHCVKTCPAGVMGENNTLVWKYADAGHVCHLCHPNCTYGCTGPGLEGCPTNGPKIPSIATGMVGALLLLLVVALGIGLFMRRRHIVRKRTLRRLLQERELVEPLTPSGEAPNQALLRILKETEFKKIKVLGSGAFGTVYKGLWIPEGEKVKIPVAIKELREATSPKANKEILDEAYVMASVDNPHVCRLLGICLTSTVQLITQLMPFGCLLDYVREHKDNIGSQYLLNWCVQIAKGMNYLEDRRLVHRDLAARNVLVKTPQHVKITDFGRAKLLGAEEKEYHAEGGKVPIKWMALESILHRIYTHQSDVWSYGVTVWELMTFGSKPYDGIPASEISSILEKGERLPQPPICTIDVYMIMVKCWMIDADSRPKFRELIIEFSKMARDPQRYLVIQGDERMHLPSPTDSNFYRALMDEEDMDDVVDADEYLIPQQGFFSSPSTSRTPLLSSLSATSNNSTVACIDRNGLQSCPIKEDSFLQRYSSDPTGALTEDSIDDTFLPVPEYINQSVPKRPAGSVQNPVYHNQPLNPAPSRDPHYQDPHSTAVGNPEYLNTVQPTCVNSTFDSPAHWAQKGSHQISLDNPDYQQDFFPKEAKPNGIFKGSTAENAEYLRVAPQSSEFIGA

Compound `Cc1c2c(nn1C)C=Cc1nn(C3CCCCO3)c3ccc(cc13)-c1cnn(C)c1O[C@@H](C)CN(C)C2` (some centres unmarked) displayed a ring closure, isolated yield in [1] (from Cc1c(CN(C)C[C@H](C)Oc2c(-c3ccc4c(c3)c(/C=C/B3OC(C)(C)C(C)(C)O3)nn4C3CCCCO3)cnn2C)c(I)nn1C, BrettPhos Pd G4/Na2CO3 aq, dioxane/H2O, 24.8 mM) of 58%.
The compound `Cc1nn(C)c2c1/C=C/c1nn(C3CCCCO3)c3ccc(cc13)-c1cnn(C)c1CN(C)CC(C)O2` (centres unmarked) registered a ring closure, isolated yield in series [1] (from Cc1nn(C)c(OC(C)CN(C)Cc2c(-c3ccc4c(c3)c(/C=C/B3OC(C)(C)C(C)(C)O3)nn4C3CCCCO3)cnn2C)c1I, XPhos Pd G4/K3PO4, DMA, 66.5 mM) of 24%.
In general, IC50 refers to the concentration needed to halve the response being measured. For the compound `CC(C)Oc1nn([C@@H](C)CO)c2c1/C=C/c1n[nH]c3cc(F)c(cc13)-c1cnn(C)c1O[C@@H](C)CN(C)C2` [Example 200, (2S)-2-{(10S,17E)-19-fluoro-8,10,12-trimethyl-16-[(propan-2-yl)oxy]-2,8,10,11,12,13-hexahydro-14H-3,5-ethenotripyrazolo[3,4-f:3′,4′-j:4″,3″-n][1,4]oxazacyclopentadecin-14-yl}propan-1-ol], the IC50 is 6.46 nM in series [2]; 59.9 nM in [3]; 4.08 nM in [4]; 1.93 nM in [5]; 2.01 nM in [6]; 1.41 nM in [7]. The IC50 in [8] worked out at 0.69 nM; in [9], 1.49 nM; in series [10], 0.48 nM; in series [11], 1 nM; in series [12], 194 nM; in [13], 1.53 nM.
For `CCN1Cc2c(c(OC(C)C)nn2[C@@H](C)CO)/C=C/c2n[nH]c3cc(F)c(cc23)-c2cnn(C)c2O[C@@H](C)C1` [Example 219, (2S)-2-{(10S,17E)-12-ethyl-19-fluoro-8,10-dimethyl-16-[(propan-2-yl)oxy]-2,8,10,11,12,13-hexahydro-14H-3,5-ethenotripyrazolo[3,4-f:3′,4′-j:4″,3″- n][1,4]oxazacyclopentadecin-14-yl}propan-1-ol], the IC50 is 7.25 nM in series [2]; 21.2 nM in series [3]; 3.02 nM in [4]; 5.13 nM in series [5]; 4.73 nM in series [6]; 5.3 nM in series [7]. The IC50 in series [8] is 3.84 nM; in series [9], 1.31 nM; in series [10], 2.05 nM; in [11], 4.51 nM; in series [12], 146 nM; in [13], 5.62 nM.
Take `CCOc1nn([C@@H](C)CO)c2c1/C=C/c1n[nH]c3cc(F)c(cc13)-c1cnn(C)c1O[C@@H](C)CN(C)C2` [Example 214, (2S)-2-[(10S,17E)-16-ethoxy-19-fluoro-8,10,12-trimethyl-2,8,10,11,12,13-hexahydro-14H-3,5-ethenotripyrazolo[3,4-f:3′,4′-j:4″,3″- n][1,4]oxazacyclopentadecin-14-yl]propan-1-ol]: the IC50 in [2] is 0.77 nM; in [3], 8.31 nM; in [4], 0.22 nM; in series [5], 0.48 nM; in [6] it was 0.35 nM; in [7], 0.2 nM. Besides, the IC50 in series [8] was found to be 0.17 nM; in series [9], 2.47 nM; in series [10], 2.37 nM; in [11] it was 2.51 nM; in [12] it was 592 nM; in series [13] it was 7.25 nM.
Consider `CC(C)Oc1nn(CCO)c2c1/C=C/c1n[nH]c3cc(F)c(cc13)-c1cnn(C)c1O[C@@H](C)CN(C)C2` [Example 181, 2-{(10S,17E)-19-fluoro-8,10,12-trimethyl-16-[(propan-2-yl)oxy]-2,8,10,11,12,13-hexahydro-14H-3,5-ethenotripyrazolo[3,4-f:3′,4′-j:4″,3″- n][1,4]oxazacyclopentadecin-14-yl}ethan-1-ol], for which the IC50 in [2] is 12.5 nM; in series [3] it was 84.4 nM; in series [4] it was 2.23 nM; in series [5], 1.68 nM; in series [6], 1.8 nM; in series [7], 1.29 nM. Also, the IC50 is 2.5 nM in [8]; 1.05 nM in series [9]; 0.87 nM in series [10]; 0.68 nM in series [11]; 56.2 nM in series [12]; 2.6 nM in series [13].
On to `Cc1onc2c1/C=C/c1n[nH]c3ccc(cc13)-c1cnn(C)c1O[C@@H](C)CN(C)C2` [Example 134, (10S,17E)-8,10,12,16-tetramethyl-2,8,10,11,12,13-hexahydro-3,5-etheno[1,2]oxazolo[3,4-f]dipyrazolo[3,4-j:4′,3′-n][1,4]oxazacyclopentadecine], for which the IC50 in [2] was 1210 nM; in [3], over 1000 nM; in series [4] it was 173 nM; in series [5], 90.8 nM; in series [6], 182 nM; in [7], 24 nM. The IC50 in [8] was 12.6 nM; in series [9] it was 21.6 nM; in [10], 0.29 nM; in series [11] it was 0.19 nM; in series [12] it was 230 nM; in series [13] it was 0.61 nM.
As for `C[C@H]1CN(C)Cc2c(c(OCC#N)nn2C)/C=C/c2n[nH]c3ccc(cc23)-c2cnn(C)c2O1` [Example 163, {[(10S,17E)-8,10,12,14-tetramethyl-2,10,11,12,13,14-hexahydro-8H-3,5-ethenotripyrazolo[3,4-f:3′,4′-j:4″,3″-n][1,4]oxazacyclopentadecin-16-yl]oxy}acetonitrile], the IC50 in [2] worked out at 29.6 nM; in series [3] it was 52 nM; in series [4] it was 7.33 nM; in series [5], 4.72 nM; in [6], 8.2 nM; in series [7] it was 0.85 nM. Further, the IC50 in series [8] is 0.86 nM; in [9], 1.13 nM; in series [10], 0.28 nM; in series [11], 0.06 nM; in series [12], 215 nM; in series [13] it was 0.63 nM.
Regarding `CC(C)Oc1nn(CCO)c2c1/C=C/c1n[nH]c3ccc(cc13)-c1cnn(C)c1O[C@@H](C)CN(C)C2` [Example 147, 2-{(10S,17E)-8,10,12-trimethyl-16-[(propan-2-yl)oxy]-2,8,10,11,12,13-hexahydro-14H-3,5-ethenotripyrazolo[3,4-f:3′,4′-j:4″,3″-n][1,4]oxazacyclopentadecin-14-yl}ethan-1-ol], the IC50 in series [2] came to 3.16 nM; in series [3] it was 9.08 nM; in [4] it was 0.59 nM; in series [5], 0.39 nM; in series [6], 0.44 nM; in [7], 0.11 nM. The IC50 was 0.19 nM in [8]; 0.99 nM in series [9]; 0.13 nM in [10]; 0.02 nM in series [11]; 5.21 nM in [12]; 0.32 nM in [13].
Take `CCOc1nn([C@@H](C)CO)c2c1/C=C/c1n[nH]c3cc(F)c(cc13)-c1cnn(C)c1O[C@@H](C)CN(CC)C2` [Example 215]: the IC50 stood at 1.71 nM in [2]; 3.75 nM in [3]; 0.69 nM in series [4]; 1.93 nM in series [5]; 1.7 nM in series [6]; 1.49 nM in series [7]. Further, the IC50 in [8] came to 0.89 nM; in [9], 2.58 nM; in [10], 3.33 nM; in series [11] it was 2.1 nM; in series [12], 964 nM; in series [13], 9.08 nM.

The record behind these values is patent US20250353864A1, “INDAZOLE CONTAINING MACROCYCLES AND THEIR USE” (BLOSSOMHILL THERAPEUTICS, INC., priority 2022, published 2025).
